Experimental data reported in patent publication US10501421B1, “Substituted benzimidazoles as modulators of Ras signaling” (VANDERBILT UNIVERSITY, priority 2017, dated 2019).
pEC50, pIC50, pKi: −log10 of the molar value. Structures can show the parent of a compound that is named as a salt. Where two headings read alike, the source gives them in different places.

How the values were obtained:
[1] = test system: H727 lung cancer cell lines (G12V K-Ras mutation); experiment: Inhibition of cancer cell proliferation (CellTiter-Glo); format: cell-based; conditions: Homo sapiens, NCI-H727, 72 h, read-out: Cell proliferation activity (H727 cancer cell line proliferation IC50)
Description: Compounds of the present invention were measured for their ability to kill H727 lung cancer cell lines, which contain a G12V K-Ras mutation. Cell proliferation experiments were conducted in 96-well plates. Cells were plated at 1000 cells/well, incubated overnight, followed by treatment with a dose range of compound for 3 days at 37° C. Cell proliferation was assessed using a CellTiter-Glo assay (Promega) according to the manufacturer's protocol. Data were normalized to DMSO control. IC50 values were determined using a four-parameter dose-response (variable slope) equation. These assays are performed in a manner analogous to the assay disclosed in: Burns, M. C.; Sun, Q.; Daniels, R. N.; Camper, D. V.; Kennedy, J. P.; Phan, J.; Olejniczak, E. O.; Lee, T.; Waterson, A. G.; Rossanese, O. W.; Fesik, S. W. “Approach for targeting Ras with small molecules that activate SOS-mediated nucleotide exchange” Proc. Natl. Acad. Sci. 2014; 11(9): 3401-3406. PMCID: PMC3948241.

[2] = molecular target: T1, Son of Sevenless (SOS) (Homo sapiens, UniProt Q07889); experiment: Binding to SOS, fluorescence polarization anisotropy (FPA) probe displacement; conditions: displacement of FITC-conjugated probe (Example 285), affinity calculated from IC50
T1 sequence (Q07889 564-1049 limits assumed): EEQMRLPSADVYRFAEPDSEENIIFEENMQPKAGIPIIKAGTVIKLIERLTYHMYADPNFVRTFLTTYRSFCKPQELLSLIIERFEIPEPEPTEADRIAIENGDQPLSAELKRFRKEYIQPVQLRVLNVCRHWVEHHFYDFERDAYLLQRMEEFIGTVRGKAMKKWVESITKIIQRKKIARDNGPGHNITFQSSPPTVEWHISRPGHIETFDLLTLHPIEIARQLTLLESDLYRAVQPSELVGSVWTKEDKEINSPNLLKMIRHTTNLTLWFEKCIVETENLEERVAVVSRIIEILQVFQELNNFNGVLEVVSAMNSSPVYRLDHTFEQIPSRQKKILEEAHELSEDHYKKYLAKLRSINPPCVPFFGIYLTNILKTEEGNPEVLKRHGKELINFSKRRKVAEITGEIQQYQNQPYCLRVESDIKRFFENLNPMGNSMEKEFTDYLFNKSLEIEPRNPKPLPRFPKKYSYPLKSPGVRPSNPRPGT
Procedure, shortened: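 A FITC-conjugated probe compound was incubated with SOS in buffer, and its displacement was tracked as a change in fluorescence anisotropy across a test-compound dose range. IC50 came from a four-parameter variable-slope fit, and binding affinity was calculated from it.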

[3] = molecular target: Ras GEF SOS (Son of Sevenless) (Homo sapiens, UniProt Q07889); experiment: SOS-mediated nucleotide exchange on Ras (BODIPY-GDP fluorescence); format: biochemical; conditions: SOS-mediated exchange of BODIPY-GDP for GTP on Ras
Sequence of Ras GEF SOS (Son of Sevenless) (P01112 1-166 partner limits assumed, one chain of several): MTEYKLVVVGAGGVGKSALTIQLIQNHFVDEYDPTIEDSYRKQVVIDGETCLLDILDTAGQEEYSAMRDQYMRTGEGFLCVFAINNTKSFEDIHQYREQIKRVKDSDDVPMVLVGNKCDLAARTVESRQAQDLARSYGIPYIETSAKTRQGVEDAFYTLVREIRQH
Procedure, shortened: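 Ras loaded with BODIPY-GDP was mixed in buffer with test compound, then GTP and SOS. Fluorescence change from labeled GDP/GTP exchange was followed over time, and rates came from single-exponential fits. EC50 came from a four-parameter fit of mean rate against compound concentration.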

[4] = H727 cells, 3 days treatment, CellTiter-Glo

Row | SMILES | pIC50 [1] | pKi [2] | pEC50 [3] | pIC50 [1, 4]
1 | C=Cc1cc(Cn2c(N3CCNCC3)nc3cc(C)c(C)cc32)cc(C=C)c1F [Example 46, 1-(4-fluoro-3,5-divinylbenzyl)-5,6-dimethyl-2-(piperazin-1-yl)-1H-benzo[d]imidazole trifluoroacetate] | 5.30 to 6.00 | < 5.30 | 4.52 to 5.30 | 
2 | CCc1cc(Cn2c(N3CCNCC3)nc3cc(C)c(C)cc32)cc(Cl)c1F [Example 48, 1-(3-chloro-5-ethyl-4-fluorobenzyl)-5,6-dimethyl-2-(piperazin-1-yl)-1H-benzo[d]imidazole trifluoroacetate] | 5.30 to 6.00 | 5.30 to 6.00 | 5.30 to 6.00 | 
3 | CCc1cc(Cn2c(N3CCNCC3)nc3cc(C)c(C)cc32)cc(CC)c1F [Example 49, 1-(3,5-diethyl-4-fluorobenzyl)-5,6-dimethyl-2-(piperazin-1-yl)-1H-benzo[d]imidazole trifluoroacetate] | 5.30 to 6.00 | < 5.30 | 5.30 to 6.00 | 
4 | CCc1cc(Cn2c(N3CCNCC3)nc3cc(C)c(C)cc32)ccc1F [Example 50, 1-(3-ethyl-4-fluorobenzyl)-5,6-dimethyl-2-(piperazin-1-yl)-1H-benzo[d]imidazole trifluoroacetate] | 5.30 to 6.00 | < 5.30 | 5.30 to 6.00 | 
5 | Cc1cc2nc(N3CCNCC3)n(Cc3ccc(F)c(C4CC4)c3)c2cc1C [Example 51, 1-(3-cyclopropyl-4-fluorobenzyl)-5,6-dimethyl-2-(piperazin-1-yl)-1H-benzo[d]imidazole trifluoroacetate] | 5.30 to 6.00 | < 5.30 | 4.52 to 5.30 | 
6 | C=Cc1cc(Cn2c(N3CCNCC3)nc3cc(C)c(C)cc32)ccc1F [Example 52, 1-(4-fluoro-3-vinylbenzyl)-5,6-dimethyl-2-(piperazin-1-yl)-1H-benzo[d]imidazole trifluoroacetate] | < 4.70 | < 5.30 | 4.52 to 5.30 | 
7 | Fc1ccc(Cn2c(NCC3CNC3)nc3ccc(Cl)cc32)cc1Cl [Example 75, N-(azetidin-3-ylmethyl)-6-chloro-1-(3-chloro-4-fluorobenzyl)-1H-benzo[d]imidazol-2-amine trifluoroacetate] | 5.30 to 6.00 | 5.30 to 6.00 | 5.30 to 6.00 | 
8 | NCC1CN(c2nc3ccc(Cl)cc3n2Cc2ccc(F)c(Cl)c2)C1 [Example 76, (1-(6-chloro-1-(3-chloro-4-fluorobenzyl)-1H-benzo[d]imidazol-2-yl)azetidin-3-yl)methanamine trifluoroacetate] | 5.30 to 6.00 | > 6.30 | > 6.00 | 
9 | Fc1ccc(Cn2c(NC3CCNC3)nc3ccc(Cl)cc32)cc1Cl (stereo not shown) [Example 77, 6-chloro-1-(3-chloro-4-fluorobenzyl)-N-(pyrrolidin-3-yl)-1H-benzo[d]imidazol-2-amine trifluoroacetate] | 5.30 to 6.00 | 6.00 to 6.30 | > 6.00 | 
10 | COc1ccccc1-c1cccc2c1nc(N1CCNCC1)n2Cc1ccc(F)c(Cl)c1 [Example 81, 1-(3-chloro-4-fluorobenzyl)-4-(2-methoxyphenyl)-2-(piperazin-1-yl)-1H-benzo[d]imidazole trifluoroacetate] | 4.70 to 5.30 | 6.00 to 6.30 | 5.30 to 6.00 | 
11 | Fc1ccc(Cn2c(N3CCNCC3)nc3c(-c4cccnc4)cccc32)cc1Cl [Example 89, 1-(3-chloro-4-fluorobenzyl)-2-(piperazin-1-yl)-4-(pyridin-3-yl)-1H-benzo[d]imidazole] |  | 5.30 to 6.00 | 5.30 to 6.00 | 4.70 to 5.30
12 | Cc1cc(-c2cccc3c2nc(N2CCNCC2)n3Cc2ccc(F)c(Cl)c2)n(C)n1 [Example 93, 1-(3-chloro-4-fluorobenzyl)-4-(1,3-dimethyl-1H-pyrazol-5-yl)-2-(piperazin-1-yl)-1H-benzo[d]imidazole] |  | 5.30 to 6.00 | 5.30 to 6.00 | 5.30 to 6.00
13 | CC(C)c1ccccc1-c1cccc2c1nc(N1CCNCC1)n2Cc1ccc(F)c(Cl)c1 [Example 94, 1-(3-chloro-4-fluorobenzyl)-4-(2-isopropylphenyl)-2-(piperazin-1-yl)-1H-benzo[d]imidazole] |  | 5.30 to 6.00 | 5.30 to 6.00 | 5.30 to 6.00
14 | Cc1cc2c(nc(N3CCNCC3)n2Cc2ccc(F)c(Cl)c2)c(-c2ccccc2)c1C [Example 104, 1-(3-chloro-4-fluorobenzyl)-5,6-dimethyl-4-phenyl-2-(piperazin-1-yl)-1H-benzo[d]imidazole trifluoroacetate] | 5.30 to 6.00 | 5.30 to 6.00 | 5.30 to 6.00 | 
15 | Cc1cc2c(nc(N3CCNCC3)n2Cc2ccc(Cl)cc2)c(-c2ccccc2Cl)c1C [Example 106, 1-(4-chlorobenzyl)-4-(2-chlorophenyl)-5,6-dimethyl-2-(piperazin-1-yl)-1H-benzo[d]imidazole trifluoroacetate] | 5.30 to 6.00 | 5.30 to 6.00 | 5.30 to 6.00 | 
16 | Cc1cc2c(nc(N3CCNCC3)n2Cc2ccc(Cl)cc2)c(-c2ccccc2F)c1C [Example 107, 1-(4-chlorobenzyl)-4-(2-fluorophenyl)-5,6-dimethyl-2-(piperazin-1-yl)-1H-benzo[d]imidazole trifluoroacetate] | 4.70 to 5.30 | 5.30 to 6.00 | 5.30 to 6.00 | 
17 | Cc1cc2c(nc(N3CCNCC3)n2Cc2ccc(F)c(Cl)c2)c(-c2ccc(CN)cc2)c1C [Example 108, (4-(1-(3-chloro-4-fluorobenzyl)-5,6-dimethyl-2-(piperazin-1-yl)-1H-benzo[d]imidazol-4-yl)phenyl)methanamine trifluoroacetate] | 5.30 to 6.00 | 6.00 to 6.30 | > 6.00 | 
18 | Cc1cc2c(nc(N3CCNCC3)n2Cc2ccc(F)c(Cl)c2)c(-c2ccccc2C(C)C)c1C [Example 109, 1-(3-chloro-4-fluorobenzyl)-4-(2-isopropylphenyl)-5,6-dimethyl-2-(piperazin-1-yl)-1H-benzo[d]imidazole] |  | 6.00 to 6.30 | 5.30 to 6.00 | 5.30 to 6.00
19 | COc1ccc(-c2c(C)c(C)cc3c2nc(N2CCNCC2)n3Cc2ccc(F)c(Cl)c2)cc1OC [Example 110, 1-(3-chloro-4-fluorobenzyl)-4-(3,4-dimethoxyphenyl)-5,6-dimethyl-2-(piperazin-1-yl)-1H-benzo[d]imidazole] |  | 5.30 to 6.00 | 5.30 to 6.00 | 5.30 to 6.00
20 | Cc1cc2c(nc(NCCN)n2Cc2ccc(F)c(Cl)c2)c(-c2ccccc2)c1C [Example 111, N^1-(1-(3-chloro-4-fluorobenzyl)-5,6-dimethyl-4-phenyl-1H-benzo[d]imidazol-2-yl)ethane-1,2-diamine trifluoroacetate] | 5.30 to 6.00 | 5.30 to 6.00 | 5.30 to 6.00 | 
21 | Cc1cc2c(nc(NCCN)n2Cc2ccc(F)c(Cl)c2)c(-c2ccccc2Cl)c1C [Example 113, N^1-(1-(3-chloro-4-fluorobenzyl)-4-(2-chlorophenyl)-5,6-dimethyl-1H-benzo[d]imidazol-2-yl)ethane-1,2-diamine trifluoroacetate] | 5.30 to 6.00 | > 6.30 | 5.30 to 6.00 | 
22 | Cc1cc2c(nc(NCCN)n2Cc2ccc(F)c(Cl)c2)c(-c2c(C)nn(C)c2C)c1C [Example 114, N^1-(1-(3-chloro-4-fluorobenzyl)-5,6-dimethyl-4-(1,3,5-trimethyl-1H-pyrazol-4-yl)-1H-benzo[d]imidazol-2-yl)ethane-1,2-diamine trifluoroacetate] | 4.70 to 5.30 | 5.30 to 6.00 | 5.30 to 6.00 | 
23 | Cc1cc(Cn2c(N3CC(CN)C3)nc3ccc(OCCN(C)C)nc32)ccc1F [Example 262, 2-((2-(3-(aminomethyl)azetidin-1-yl)-3-(4-fluoro-3-methylbenzyl)-3H-imidazo[4,5-b]pyridin-5-yl)oxy)-N,N-dimethylethan-1-amine] |  |  | 4.00 to 4.52 | 4.70 to 5.30
24 | Cc1cc(Cn2c(NCC3CNC3)nc3ccc(OCCN(C)C)nc32)ccc1F [Example 263, N-(azetidin-3-ylmethyl)-5-(2-(dimethylamino)ethoxy)-3-(4-fluoro-3-methylbenzyl)-3H-imidazo[4,5-b]pyridin-2-amine] |  |  | 4.00 to 4.52 | 4.70 to 5.30
